Assay results as given in paper PMC4757881 (Scientific Reports, 2016).

How the values were obtained:
CB2 receptor (hCB2) = target: T1, CB2 receptor (hCB2) (Homo sapiens, UniProt P34972); assay: radioligand competition ([3H]CP55940) on HEK293 membranes expressing hCB2; agonist in CRE-Luc assay; format: binding
T1 construct: gene CNR2

PPARγ = target: T2, PPARγ (Homo sapiens, UniProt P37231); assay: fluorescence polarization competition (PolarScreen PPARγ Competitor Assay); GAL4-PPARγ transactivation; format: binding
T2 construct: gene PPARG
T2 sequence (P37231 1-505): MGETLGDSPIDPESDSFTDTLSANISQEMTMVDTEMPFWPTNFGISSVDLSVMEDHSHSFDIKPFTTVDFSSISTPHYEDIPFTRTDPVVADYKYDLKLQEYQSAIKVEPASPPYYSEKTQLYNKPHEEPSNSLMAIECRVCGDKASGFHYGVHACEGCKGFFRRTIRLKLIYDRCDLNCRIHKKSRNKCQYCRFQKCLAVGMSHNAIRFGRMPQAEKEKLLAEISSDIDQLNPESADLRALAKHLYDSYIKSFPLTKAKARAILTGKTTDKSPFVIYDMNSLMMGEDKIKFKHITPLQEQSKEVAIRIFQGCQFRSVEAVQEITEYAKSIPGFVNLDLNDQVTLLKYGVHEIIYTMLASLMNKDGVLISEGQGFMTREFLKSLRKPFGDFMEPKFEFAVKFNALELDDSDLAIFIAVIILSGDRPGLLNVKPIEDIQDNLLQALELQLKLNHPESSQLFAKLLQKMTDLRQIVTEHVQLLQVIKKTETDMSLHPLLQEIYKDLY

T1 sequence (P34972 whole entry): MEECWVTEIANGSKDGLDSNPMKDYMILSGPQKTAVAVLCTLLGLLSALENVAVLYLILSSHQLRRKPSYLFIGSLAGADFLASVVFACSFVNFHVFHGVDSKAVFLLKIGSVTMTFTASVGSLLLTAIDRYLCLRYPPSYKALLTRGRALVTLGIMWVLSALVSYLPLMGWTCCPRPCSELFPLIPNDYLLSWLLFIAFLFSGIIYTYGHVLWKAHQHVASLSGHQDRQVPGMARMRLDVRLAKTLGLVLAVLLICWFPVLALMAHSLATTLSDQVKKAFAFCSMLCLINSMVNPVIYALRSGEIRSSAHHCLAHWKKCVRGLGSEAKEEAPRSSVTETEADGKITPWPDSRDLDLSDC

With `C=C(C)[C@@H]1CCC(C)=C[C@H]1C1=C(O)C(=O)C(CCCCC)=C(NCc2ccccc2)C1=O` [VCE-004.8] the Ki (CB2 receptor (hCB2)) was 170 ± 50 nM and the IC50 (PPARγ) was 1700 nM.
